In PubChem BioAssay (NCI):
“And” between values parts separate entries of the source, which are not always exact repeats. Equal values may be shown once.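 All cell lines were grown in 96-well plates and treated with compound for 48 hours. GI50 is the concentration that inhibits growth by half. TGI: total growth inhibition.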

Tests used:
Assay in all cases: NCI tumour cell line growth inhibition, 48 h
CAKI-1 renal = system: CAKI-1 renal
KM12 colon = system: KM12 colon
MALME-3M melanoma = system: MALME-3M melanoma
MDA-MB-231 breast = system: MDA-MB-231 breast
MOLT-4 leukemia = system: MOLT-4 leukemia
NCI/ADR-RES ovarian = system: NCI/ADR-RES ovarian
SK-MEL-2 melanoma = system: SK-MEL-2 melanoma
TK-10 renal = system: TK-10 renal
UACC-257 melanoma = system: UACC-257 melanoma
UACC-62 melanoma = system: UACC-62 melanoma

| Compound | GI50 (CAKI-1 renal) | TGI (CAKI-1 renal) | GI50 (KM12 colon) | TGI (KM12 colon) | GI50 (MALME-3M melanoma) | TGI (MALME-3M melanoma) | GI50 (MDA-MB-231 breast) | TGI (MDA-MB-231 breast) | GI50 (MOLT-4 leukemia) | TGI (MOLT-4 leukemia) | GI50 (NCI/ADR-RES ovarian) | TGI (NCI/ADR-RES ovarian) | GI50 (SK-MEL-2 melanoma) | TGI (SK-MEL-2 melanoma) | GI50 (TK-10 renal) | TGI (TK-10 renal) | GI50 (UACC-257 melanoma) | TGI (UACC-257 melanoma) | GI50 (UACC-62 melanoma) | TGI (UACC-62 melanoma) |
| --- | --- | --- | --- | --- | --- | --- | --- | --- | --- | --- | --- | --- | --- | --- | --- | --- | --- | --- | --- | --- |
| CN1C(=O)C(c2c[nH]c3ccccc23)=C(c2c[nH]c3ccccc23)C1=O | 3.92 µM | 12.1 µM | 5.66 µM | > 21.3 µM | 7.44 µM | > 20.8 µM | 4.22 µM | 15.8 µM | 7.83 µM | > 25 µM | 6.66 µM | > 25 µM | 5.26 µM | 13.4 µM | 12.5 µM | > 25 µM | 7.65 µM | 24.8 µM | 3.07 µM | 17.3 µM |
| C=CC1(C)CCC2C(=CCC3C2(C)CC(O)C(O)C3(C)COC2OC(CO)C(O)C(O)C2O)C1 (stereo not drawn) | – | > 100 µM | – | > 100 µM | – | > 100 µM | – | > 100 µM | – | > 100 µM | – | > 100 µM | – | > 100 µM | – | > 100 µM | – | > 100 µM | – | > 100 µM |
| N#CC1=C(N)Oc2c(sc3c(Br)cccc23)C1c1ccc([N+](=O)[O-])cc1 (stereo not drawn) | 0.0837 µM | 16.9 µM | 0.0997 µM | 9.36 µM | 1.08 µM | 24.7 µM | 0.514 µM | 9.67 µM | 0.223 µM | 6.07 µM | 0.0398 µM | 8.37 µM | 0.294 µM | 17.5 µM | 2.32 µM | 20 µM | 11.4 µM | 27.5 µM | 0.0634 µM | 12.3 µM |
| NS(=O)(=O)c1ccc(N(/C=C/C(=O)C(F)(F)F)CC(=O)c2ccc(F)cc2)cc1 | 22.6 µM | 56.9 µM | 24.5 µM | 57.9 µM | 43.1 µM | 78.9 µM | 20.9 µM | 42 µM | 20 µM | 72.5 µM | 18.2 µM | 41.6 µM | 26.1 µM | 55.2 µM | 25.9 µM | > 100 µM | 22 µM | 72.8 µM | 17.6 µM | 31.9 µM |
| Cn1cc(-c2ccc3nc(-c4ccc(CC(=O)Nc5cc(C(C)(C)C)no5)cc4)cnc3c2)cn1 | 0.0102 µM | > 3 µM | 0.00173 µM | > 3 µM | 0.021 µM | > 0.694 µM | 0.0392 µM | 0.664 µM | 0.102 µM | > 3 µM | 0.0612 µM | > 3 µM | 0.0237 µM | 0.581 µM | 0.0139 µM | > 3 µM | 0.0784 µM | > 3 µM | 0.0297 µM | > 3 µM |
| Cc1c(Cl)cccc1C(=O)Nc1nc2c(s1)CN(C(=O)Nc1cccc(C(F)(F)F)c1)CC2 | 0.216 µM | > 50 µM | 0.174 µM | > 21.7 µM | 0.356 µM | > 50 µM | 0.59 µM | > 35.6 µM | 0.291 µM | > 50 µM | 0.14 µM | 1.01 µM | 0.283 µM | > 50 µM | 1.56 µM | > 50 µM | 2.21 µM | > 50 µM | 0.366 µM | > 50 µM |
| COc1cc2c(c3oc(-c4ccc(O)cc4)c(O)c(=O)c13)CCC(C)(C)O2 | 0.245 µM | 1.17 µM | 0.384 µM | 23.4 µM | 1.42 µM | > 100 µM | 0.101 µM | 0.312 µM | 0.191 µM | – | 0.309 µM | 0.829 µM | 0.326 µM | – | 0.5 µM | > 100 µM | 0.291 µM | 0.778 µM | 0.199 µM | 0.616 µM |
| CS(=O)(=O)OCCN(CCOS(C)(=O)=O)c1ccc(C=Nc2ccc(-c3csc(COc4ccccc4)n3)cc2)cc1 | – | 4.18 µM | – | 19.8 µM | – | 28.8 µM | – | 42.7 µM | – | 15.6 µM | – | 49.7 µM | – | 37.3 µM | – | 12.5 µM | – | 28.3 µM | – | 19.8 µM |
| Cc1ccc(NC(=O)c2ccc(CN3CCN(C)CC3)cc2)cc1Nc1nc(-c2cccnc2)cs1 | 11.6 µM and > 10 µM | 24.9 µM and > 10 µM | 9.85 µM and 6.72 µM | 23.2 µM and > 10 µM | 7.14 µM and 2.26 µM | 21 µM and 6.92 µM | 11.1 µM and 4.43 µM | 29.2 µM and > 10 µM | 3.11 µM and 2.67 µM | 18.3 µM and 9.64 µM | 22.7 µM and 7.39 µM | > 86.7 µM | 13.9 µM and > 10 µM | 27.3 µM and > 10 µM | 16.8 µM and > 10 µM | 30.6 µM and > 10 µM | 7.9 µM and 7.34 µM | 20.2 µM and > 10 µM | 15 µM and 8.56 µM | 30.4 µM and > 10 µM |
| Sc1cccc2cccnc12 | 1.67 µM | 14.5 µM | 0.874 µM | 12.1 µM | 1.06 µM | 14 µM | 1.36 µM | 14.7 µM | 0.55 µM | 19.7 µM | 0.955 µM | 9.21 µM | 2.58 µM | 15.3 µM | 4.16 µM | 15.6 µM | 1.37 µM | 12.3 µM | 0.529 µM | 7.25 µM |
| O=C(CCCc1ccc(N(CCCl)CCCl)cc1)NCc1ccccc1 | 2.33 µM | 14.4 µM | 12.3 µM | 52.1 µM | 13.2 µM | 37.6 µM | 21.3 µM | > 100 µM | 2.89 µM | 11.6 µM | 6.88 µM | 60.7 µM | 21.8 µM | 55 µM | 15.5 µM | 56.8 µM | 12.1 µM | 55.5 µM | 4.69 µM | 22 µM |
